Reference: PubChem BioAssay AID977622 (Broad Institute, 2014)
Records with an inconclusive call do not appear. Calls of active or inactive are those of the source.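 Rule for the calls: active = Green signal of the normal strain falls at least twice as much as red signal of the resistant mutant, with overall culture growth loss under a set limit; inconclusive = no clear call, values can overlap the other calls; inactive = the rest.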

Legend:
[1] = system: E. coli WT ribosome GFP fluorescence, mixed culture, 24 h; test: wild-type E. coli growth inhibition versus h38 humanized strain – h38 mutant RFP, wild-type GFP, cherry-pick, dose response (AID 977622)
[2] = system: E. coli h38 humanized mutant ribosome RFP fluorescence, mixed culture, 24 h; test: as above; details: measured here: h38 humanized mutant RFP strain
[3] = E. coli mixed culture, 24 h, measured here: total growth OD600

| SMILES | AC50 [1] | AC50 [2] | AC50 [1, 3] |
| --- | --- | --- | --- |
| COc1ccc(CN2C(=O)NC(C)(c3ccc(C)cc3)C2=O)cc1F (stereo not given) | > 100 µM (inactive) | > 100 µM |  |
| COc1ccc(NC(=O)Nc2cccc3c2O[C@@H](CN(C)S(=O)(=O)c2ccc(Cl)cc2)[C@H](C)CN([C@H](C)CO)C3=O)cc1 | > 100 µM (inactive) | > 100 µM |  |
| Cc1ccccc1-c1cc(C(=O)NCc2cccs2)n(CC2CC(c3cccnc3)=NO2)n1 (stereo not given) | > 100 µM (inactive) | > 100 µM |  |
| CN(C)c1ccc(-c2nnn(Cc3ccccc3Br)n2)cc1 | > 100 µM (inactive) | > 100 µM |  |
| CCc1cc2c(nc1CC)CCCN2Cc1ccc(Br)cc1 | > 100 µM (inactive) | > 100 µM |  |
| CN(C)S(=O)(=O)N1CCN(c2ccccc2Cl)CC1 |  | > 100 µM | > 100 µM |
| Cc1nc([N+](=O)[O-])c(Br)n1CC(=O)c1ccc(F)cc1 | > 100 µM (inactive) | 4.58 µM |  |
| O=C(Nc1ccncc1)c1ccc(S(=O)(=O)Nc2ccccc2)cc1 | > 100 µM (inactive) | > 100 µM |  |
| O=C(O)CSc1nnc(-c2ccc(Cl)cc2Cl)n1-c1ccc(Br)cc1 | > 100 µM (inactive) | > 100 µM | > 100 µM |
| COc1ccccc1NC(=O)COC(=O)Cc1c[nH]c2ccccc12 |  | > 100 µM | > 100 µM |
| Cc1ccc(C(=O)Nc2cccc3[nH]c(C(F)(F)F)nc23)cc1 |  | > 100 µM | > 100 µM |
| CCCc1c(C(=O)Nc2ccc(OC)cc2)cnn1-c1ccccc1 | > 100 µM (inactive) | 9.68 µM |  |
| CCn1cc(Br)c(C(=O)Nc2ccc(C(=O)OC(C)C)cc2)n1 | > 100 µM (inactive) | > 100 µM |  |
| C[C@@H]1CCCCO[C@H](CN(C)CC2CC2)[C@H](C)CN([C@@H](C)CO)C(=O)c2cc(NC(=O)Nc3cccc4ccccc34)ccc2O1 | > 52 µM (inactive) | 43.2 µM | 32.4 µM |
| CCc1cc2cc(OC)ccc2nc1SCC(=O)Nc1cc(OC)c(OC)cc1C(=O)O | > 100 µM (inactive) | > 100 µM | 36.3 µM |
| COc1ccc2oc(C)c(C(=O)c3ccccc3)c2c1 | > 100 µM (inactive) | > 100 µM | 48.5 µM |
| Nc1c(Cl)cc(C2=NCCn3nc4ccccc4c32)cc1Cl | > 100 µM (inactive) | 50.5 µM | 41.6 µM |
| CC(C)n1nnnc1C1c2ccccc2C(=O)N1CCOc1ccccc1 (stereo not given) |  | 3.86 µM | > 100 µM |
| COc1cccc(NC(=O)C2CCC(CNS(=O)(=O)c3cccs3)CC2)c1 (stereo not given) | > 100 µM (inactive) | > 100 µM |  |
| COC(=O)c1c(-c2ccc(OC)cc2)sc2cc(OC)c(OC)cc12 | > 100 µM (inactive) | > 100 µM | 45.8 µM |
| O=C1OC[C@@H]2CCCN2C(=O)[C@@H](CC(=O)N(CCO)Cc2ccccc2)C/C=C\C[C@H]1Cc1ccc(F)cc1 |  | > 100 µM | > 100 µM |
| O=S(=O)(Nc1ccc(-c2cnco2)cc1)c1ccccc1 | > 100 µM (inactive) | > 100 µM |  |
| CCC1(CC)NC(=O)N(CC(=O)N2N=C(c3ccc(Cl)cc3)CC2c2ccco2)C1=O (stereo not given) |  | > 100 µM | > 100 µM |
| NC(=O)c1cccnc1Oc1ccc(Cl)cc1Cl | > 100 µM (inactive) | > 100 µM |  |
| C=C1c2cc3c(cc2NC(=S)N1Cc1ccccc1)OCO3 |  | > 100 µM | > 100 µM |
| N#Cc1cccc(-c2ccc3c(c2)[C@@H]2[C@@H](CCN2S(=O)(=O)c2cccc(F)c2)[C@H](CO)N3)c1 | > 100 µM (inactive) | > 100 µM |  |
| O=C(NCc1ccccc1)C1C(=O)Nc2ccccc2C(=O)N1c1ccc2c(c1)OCCO2 (stereo not given) | > 100 µM (inactive) | > 100 µM |  |
| O=S1(=O)N[C@H](Cc2ccccc2)COc2cccc(N3CCC[C@H]3CO)c21 | > 100 µM (inactive) | > 100 µM |  |
| NS(=O)(=O)c1cccc(NC(=O)CSc2nc3ccccc3n2-c2ccccc2)c1 | > 100 µM (inactive) | > 100 µM | 36 µM |
